The NIST ThermoML archive (doi:10.1021/je8008649)

Test: mn = molality of the nth substance listed, in mol/kg
Conditions: 101 kPa, Liquid

NO.O=S(=O)(O)O [hydroxylammonium hydrogen sulfate] + O
Conditions	mass density, 303.15 K [kg/m3]	mass density, 308.15 K [kg/m3]	mass density, 313.15 K [kg/m3]	viscosity, 303.15 K [mPa·s]	viscosity, 308.15 K [mPa·s]
m1 = 0.0075	996.46	994.84	993	–	–
m1 = 0.0204	–	–	–	0.806	0.727
m1 = 0.038	999.59	997.95	996.09	–	–
m1 = 0.0473	–	–	–	0.814	0.736
m1 = 0.0702	1002.88	1001.17	999.12	0.821	0.741
m1 = 0.2199	1017.48	1015.7	1013.04	–	–
m1 = 0.2315	–	–	–	0.869	0.787
m1 = 0.3709	1031.38	1029.51	1027.24	0.912	0.823
m1 = 0.4314	1036.73	1034.77	1032.85	0.927	0.838
m1 = 0.5334	1045.61	1043.69	1041.6	0.961	0.867
m1 = 0.8069	1068.3	1066.3	1064.15	1.053	0.95
m1 = 0.9684	1081.32	1079.23	1076.98	–	–
m1 = 1.044	–	–	–	1.128	1.02
m1 = 1.165	1095.85	1093.7	1091.42	–	–
m1 = 1.324	–	–	–	1.237	1.112
m1 = 1.478	1118.82	1116.5	1113.63	–	–
m1 = 1.589	–	–	–	1.333	1.201
m1 = 1.851	1142.34	1141.16	1138.36	–	–
m1 = 1.915	–	–	–	1.463	1.319
m1 = 2.088	–	–	–	1.542	1.386
m1 = 2.461	1180.07	1177.64	1175.14	–	–
m1 = 2.847	–	–	–	1.887	1.702
m1 = 2.998	1208.79	1206.32	1203.99	–	–
